Data taken from PMC9653409, “Generative deep learning enables the discovery of a potent and selective RIPK1 inhibitor” (Nature Communications, 2022).
Read-outs that look alike come from different tables or passages of the source.

What was measured:
Experiment in all cases: Kinase inhibitory activity profiling of RI-962@10 µM (406 kinases, Eurofins)
Assay type in all cases: biochemical
[1] = target: panel of human kinases (kinase named in endpoint) (Homo sapiens, UniProt O94768); settings: 10 µM; read-out: Activity (%), DRAK2(h)
In short: (§1)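 Radiometric filter-binding kinase assays: enzyme preincubated 15 min with compound in 8 mM MOPS pH 7.0, 0.2 mM EDTA, 250 μM peptide substrate, 10 mM magnesium acetate, 10 μM [γ-33P]-ATP. Reaction started with Mg/ATP, run 40 min at room temperature, stopped with phosphoric acid; 33P incorporation read by scintillation counting. Other kinases by similar protocols.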

[2] = target: panel of human kinases (kinase named in endpoint) (Homo sapiens, UniProt Q9BYP7); settings: 10 µM; read-out: Activity (%), WNK3(h)
In short: as §1

[3] = target: panel of human kinases (kinase named in endpoint) (Homo sapiens, UniProt Q92519); settings: 10 µM; read-out: Activity (%), TRB2(h)
In short: as §1

[4] = target: panel of human kinases (kinase named in endpoint) (Homo sapiens, UniProt P16234, D842V); settings: 10 µM; read-out: Activity (%), PDGFRα(D842V)(h)
In short: as §1

[5] = target: panel of human kinases (kinase named in endpoint) (Homo sapiens, UniProt O15530); settings: 10 µM; read-out: Activity (%), PDK1(h)
In short: as §1

[6] = target: panel of human kinases (kinase named in endpoint) (Homo sapiens, UniProt Q8TDC3); settings: 10 µM; read-out: Activity (%), BrSK1(h)
In short: as §1

[7] = target: panel of human kinases (kinase named in endpoint) (Homo sapiens, UniProt Q96L34); settings: 10 µM; read-out: Activity (%), MARK4(h)
Sequence of panel of human kinases (kinase named in endpoint) (Homo sapiens, UniProt Q96L34) (Q96L34 whole entry): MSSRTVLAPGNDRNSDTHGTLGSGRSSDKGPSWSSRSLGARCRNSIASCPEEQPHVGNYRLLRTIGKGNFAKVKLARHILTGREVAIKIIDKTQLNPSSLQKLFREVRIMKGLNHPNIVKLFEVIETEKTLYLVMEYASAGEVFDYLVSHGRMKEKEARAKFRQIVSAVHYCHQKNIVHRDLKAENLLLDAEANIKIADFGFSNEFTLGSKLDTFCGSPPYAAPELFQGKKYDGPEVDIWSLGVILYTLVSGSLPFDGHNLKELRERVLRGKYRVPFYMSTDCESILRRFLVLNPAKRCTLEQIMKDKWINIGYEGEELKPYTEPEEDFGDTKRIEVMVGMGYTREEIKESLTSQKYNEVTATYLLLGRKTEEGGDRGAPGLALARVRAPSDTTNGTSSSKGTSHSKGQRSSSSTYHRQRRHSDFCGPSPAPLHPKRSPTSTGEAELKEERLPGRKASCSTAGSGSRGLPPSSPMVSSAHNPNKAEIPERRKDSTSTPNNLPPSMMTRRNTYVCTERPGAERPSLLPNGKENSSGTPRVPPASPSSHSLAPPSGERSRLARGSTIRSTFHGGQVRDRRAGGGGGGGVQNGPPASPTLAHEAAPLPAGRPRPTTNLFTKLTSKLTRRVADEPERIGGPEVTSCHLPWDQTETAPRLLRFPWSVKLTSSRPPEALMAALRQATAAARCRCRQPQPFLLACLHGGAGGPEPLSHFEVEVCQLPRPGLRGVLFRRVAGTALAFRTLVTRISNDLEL
In short: as §1

[8] = target: panel of human kinases (kinase named in endpoint) (Homo sapiens, UniProt P49674); settings: 10 µM; read-out: Activity (%), CK1ε(h)
Sequence of panel of human kinases (kinase named in endpoint) (Homo sapiens, UniProt P49674) (P49674 whole entry): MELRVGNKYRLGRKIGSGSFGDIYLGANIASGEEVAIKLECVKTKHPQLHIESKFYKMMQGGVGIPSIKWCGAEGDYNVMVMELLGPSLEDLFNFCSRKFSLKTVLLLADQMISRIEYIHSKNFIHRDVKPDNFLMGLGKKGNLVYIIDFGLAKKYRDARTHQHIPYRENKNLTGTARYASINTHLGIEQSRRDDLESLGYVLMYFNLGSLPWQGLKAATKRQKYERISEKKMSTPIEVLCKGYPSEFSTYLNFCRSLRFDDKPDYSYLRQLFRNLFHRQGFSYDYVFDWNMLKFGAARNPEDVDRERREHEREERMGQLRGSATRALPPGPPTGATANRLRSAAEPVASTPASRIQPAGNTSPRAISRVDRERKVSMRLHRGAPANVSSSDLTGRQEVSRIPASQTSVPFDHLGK
In short: as §1

[9] = target: panel of human kinases (kinase named in endpoint) (Homo sapiens, UniProt P22455); settings: 10 µM; read-out: Activity (%), FGFR4(h)
In short: as §1

[10] = target: panel of human kinases (kinase named in endpoint) (Homo sapiens, UniProt P24941); settings: 10 µM
In short: as §1

[11] = target: panel of human kinases (kinase named in endpoint) (Homo sapiens, UniProt Q13882); settings: 10 µM; read-out: Activity (%), BRK(h)
In short: as §1

[12] = target: panel of human kinases (kinase named in endpoint) (Homo sapiens, UniProt P49759); settings: 10 µM; read-out: Activity (%), CLK1(h)
Sequence of panel of human kinases (kinase named in endpoint) (Homo sapiens, UniProt P49759) (P49759 whole entry): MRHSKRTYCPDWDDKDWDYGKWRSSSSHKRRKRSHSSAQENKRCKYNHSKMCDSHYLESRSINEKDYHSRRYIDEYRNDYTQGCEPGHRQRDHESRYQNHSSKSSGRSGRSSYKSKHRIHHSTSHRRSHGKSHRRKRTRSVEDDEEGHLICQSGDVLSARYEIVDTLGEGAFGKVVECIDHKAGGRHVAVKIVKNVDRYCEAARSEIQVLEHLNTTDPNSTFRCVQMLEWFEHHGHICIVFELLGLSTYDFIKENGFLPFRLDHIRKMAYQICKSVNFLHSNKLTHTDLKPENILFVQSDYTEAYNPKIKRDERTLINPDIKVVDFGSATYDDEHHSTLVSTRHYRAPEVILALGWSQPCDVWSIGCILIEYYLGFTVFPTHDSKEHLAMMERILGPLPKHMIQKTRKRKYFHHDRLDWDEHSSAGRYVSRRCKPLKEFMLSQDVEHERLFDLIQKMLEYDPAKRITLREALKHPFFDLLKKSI
In short: as §1

[13] = target: panel of human kinases (kinase named in endpoint) (Homo sapiens, UniProt Q13131); settings: 10 µM; read-out: Activity (%), AMPKα1(h)
In short: as §1

[14] = target: panel of human kinases (kinase named in endpoint) (Homo sapiens, UniProt O94921); settings: 10 µM; read-out: Activity (%), CDK14/cyclinY(h)
In short: as §1

[15] = target: panel of human kinases (kinase named in endpoint) (Homo sapiens, UniProt O96017, R145W); settings: 10 µM; read-out: Activity (%), CHK2(R145W)(h)
Sequence of panel of human kinases (kinase named in endpoint) (Homo sapiens, UniProt O96017, R145W) (O96017 whole entry R145W): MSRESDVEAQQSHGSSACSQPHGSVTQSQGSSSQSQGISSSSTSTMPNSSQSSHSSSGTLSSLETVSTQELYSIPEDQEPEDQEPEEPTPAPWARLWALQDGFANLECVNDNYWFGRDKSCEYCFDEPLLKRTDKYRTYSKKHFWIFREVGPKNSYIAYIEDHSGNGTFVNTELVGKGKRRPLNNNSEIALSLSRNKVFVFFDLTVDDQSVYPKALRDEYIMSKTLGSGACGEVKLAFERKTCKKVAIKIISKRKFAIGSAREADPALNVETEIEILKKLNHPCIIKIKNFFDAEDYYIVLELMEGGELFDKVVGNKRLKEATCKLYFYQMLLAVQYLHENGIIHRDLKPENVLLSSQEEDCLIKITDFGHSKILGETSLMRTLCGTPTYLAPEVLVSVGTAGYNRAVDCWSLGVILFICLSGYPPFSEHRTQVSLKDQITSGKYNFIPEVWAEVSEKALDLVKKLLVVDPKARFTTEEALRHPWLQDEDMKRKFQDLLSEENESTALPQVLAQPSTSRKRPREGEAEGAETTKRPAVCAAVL
In short: as §1

[16] = target: panel of human kinases (kinase named in endpoint) (Homo sapiens, UniProt Q9Y243); settings: 10 µM; read-out: Activity (%), PKBγ(h)
In short: as §1

[17] = target: panel of human kinases (kinase named in endpoint) (Homo sapiens, UniProt O75116); settings: 10 µM; read-out: Activity (%), ROCK-II(h)
Sequence of panel of human kinases (kinase named in endpoint) (Homo sapiens, UniProt O75116) (O75116 whole entry): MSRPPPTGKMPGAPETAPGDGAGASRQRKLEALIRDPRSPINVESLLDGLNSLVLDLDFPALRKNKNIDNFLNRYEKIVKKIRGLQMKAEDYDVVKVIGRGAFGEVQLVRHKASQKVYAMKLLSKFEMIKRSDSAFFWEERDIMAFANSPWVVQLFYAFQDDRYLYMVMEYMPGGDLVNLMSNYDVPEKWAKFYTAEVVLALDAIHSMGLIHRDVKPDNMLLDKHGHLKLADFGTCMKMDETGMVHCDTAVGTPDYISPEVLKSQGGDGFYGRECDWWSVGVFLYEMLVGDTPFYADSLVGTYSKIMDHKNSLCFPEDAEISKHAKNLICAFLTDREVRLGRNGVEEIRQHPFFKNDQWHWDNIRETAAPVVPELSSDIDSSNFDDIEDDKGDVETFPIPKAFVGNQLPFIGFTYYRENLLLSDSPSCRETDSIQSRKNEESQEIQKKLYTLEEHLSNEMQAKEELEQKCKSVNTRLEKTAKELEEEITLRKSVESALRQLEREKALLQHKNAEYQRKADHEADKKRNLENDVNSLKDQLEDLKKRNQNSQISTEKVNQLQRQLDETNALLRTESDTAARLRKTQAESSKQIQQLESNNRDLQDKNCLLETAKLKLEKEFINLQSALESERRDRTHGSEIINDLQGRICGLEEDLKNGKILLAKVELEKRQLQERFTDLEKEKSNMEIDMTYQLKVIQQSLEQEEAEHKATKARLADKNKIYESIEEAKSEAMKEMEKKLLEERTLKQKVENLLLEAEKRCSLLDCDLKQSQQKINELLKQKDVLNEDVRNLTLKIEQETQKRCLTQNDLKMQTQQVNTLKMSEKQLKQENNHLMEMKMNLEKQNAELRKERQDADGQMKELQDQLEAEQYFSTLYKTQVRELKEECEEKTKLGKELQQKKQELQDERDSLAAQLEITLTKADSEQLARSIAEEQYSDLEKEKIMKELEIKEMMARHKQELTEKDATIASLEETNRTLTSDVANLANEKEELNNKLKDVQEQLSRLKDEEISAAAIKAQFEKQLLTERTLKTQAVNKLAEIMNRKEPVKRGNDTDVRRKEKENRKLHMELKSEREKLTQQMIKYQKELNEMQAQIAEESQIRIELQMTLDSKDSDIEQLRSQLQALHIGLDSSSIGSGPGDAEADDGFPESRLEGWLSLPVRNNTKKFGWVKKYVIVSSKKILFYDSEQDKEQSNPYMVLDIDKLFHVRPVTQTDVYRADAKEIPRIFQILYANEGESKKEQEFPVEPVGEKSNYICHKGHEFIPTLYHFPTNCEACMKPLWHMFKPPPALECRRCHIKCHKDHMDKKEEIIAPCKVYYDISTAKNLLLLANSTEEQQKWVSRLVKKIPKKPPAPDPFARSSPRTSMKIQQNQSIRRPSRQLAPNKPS
In short: as §1

[18] = target: panel of human kinases (kinase named in endpoint) (Homo sapiens, UniProt Q9H093); settings: 10 µM; read-out: Activity (%), NUAK2(h)
In short: as §1

[19] = target: panel of human kinases (kinase named in endpoint) (Homo sapiens, UniProt Q8WXR4); settings: 10 µM; read-out: Activity (%), MYO3B(h)
Sequence of panel of human kinases (kinase named in endpoint) (Homo sapiens, UniProt Q8WXR4) (Q8WXR4 whole entry): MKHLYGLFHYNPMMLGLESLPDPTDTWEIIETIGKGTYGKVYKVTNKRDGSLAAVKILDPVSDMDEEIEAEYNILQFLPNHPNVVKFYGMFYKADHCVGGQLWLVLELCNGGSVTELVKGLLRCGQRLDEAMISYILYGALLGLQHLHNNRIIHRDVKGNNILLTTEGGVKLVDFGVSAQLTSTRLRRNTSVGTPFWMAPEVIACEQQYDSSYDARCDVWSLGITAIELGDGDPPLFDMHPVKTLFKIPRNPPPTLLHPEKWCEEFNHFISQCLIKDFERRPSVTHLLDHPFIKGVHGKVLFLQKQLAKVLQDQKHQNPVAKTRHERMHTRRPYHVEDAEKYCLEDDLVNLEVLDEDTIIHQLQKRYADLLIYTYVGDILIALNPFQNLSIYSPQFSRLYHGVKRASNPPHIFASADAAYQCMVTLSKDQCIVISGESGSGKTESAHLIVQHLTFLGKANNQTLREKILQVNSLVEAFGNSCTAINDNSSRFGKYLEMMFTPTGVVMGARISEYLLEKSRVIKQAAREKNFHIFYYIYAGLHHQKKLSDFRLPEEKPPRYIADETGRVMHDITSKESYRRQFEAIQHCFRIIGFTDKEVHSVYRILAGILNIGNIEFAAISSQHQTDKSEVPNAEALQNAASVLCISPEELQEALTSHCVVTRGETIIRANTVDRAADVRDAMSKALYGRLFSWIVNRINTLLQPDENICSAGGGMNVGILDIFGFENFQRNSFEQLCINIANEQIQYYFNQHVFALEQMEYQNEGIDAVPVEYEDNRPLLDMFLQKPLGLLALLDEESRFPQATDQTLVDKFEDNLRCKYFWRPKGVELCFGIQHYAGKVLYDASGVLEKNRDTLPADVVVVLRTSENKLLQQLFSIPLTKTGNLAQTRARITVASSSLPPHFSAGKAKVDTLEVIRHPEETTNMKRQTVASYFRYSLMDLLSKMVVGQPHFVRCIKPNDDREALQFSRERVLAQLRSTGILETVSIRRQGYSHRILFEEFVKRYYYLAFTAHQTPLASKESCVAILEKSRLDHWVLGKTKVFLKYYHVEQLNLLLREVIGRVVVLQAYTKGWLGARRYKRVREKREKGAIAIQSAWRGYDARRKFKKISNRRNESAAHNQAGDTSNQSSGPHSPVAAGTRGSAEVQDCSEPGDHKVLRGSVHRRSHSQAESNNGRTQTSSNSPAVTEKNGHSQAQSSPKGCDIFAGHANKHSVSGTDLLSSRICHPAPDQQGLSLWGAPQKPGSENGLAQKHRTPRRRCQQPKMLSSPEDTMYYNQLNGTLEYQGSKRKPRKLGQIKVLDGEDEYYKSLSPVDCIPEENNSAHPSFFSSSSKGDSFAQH
In short: as §1

[20] = target: panel of human kinases (kinase named in endpoint) (Homo sapiens, UniProt P29317); settings: 10 µM; read-out: Activity (%), EphA2(h)
In short: as §1

[21] = target: panel of human kinases (kinase named in endpoint) (Homo sapiens, UniProt Q13188); settings: 10 µM; read-out: Activity (%), MST2(h)
In short: as §1

[22] = target: panel of human kinases (kinase named in endpoint) (Homo sapiens, UniProt Q9UEE5); settings: 10 µM; read-out: Activity (%), DRAK1(h)
In short: as §1

[23] = target: panel of human kinases (kinase named in endpoint) (Homo sapiens, UniProt Q8IW41); settings: 10 µM; read-out: Activity (%), PRAK(h)
In short: as §1

[24] = target: panel of human kinases (kinase named in endpoint) (Homo sapiens, UniProt Q15139); settings: 10 µM; read-out: Activity (%), PKCμ(h)
In short: as §1

[25] = target: panel of human kinases (kinase named in endpoint) (Homo sapiens, UniProt P21802, N549H); settings: 10 µM; read-out: Activity (%), FGFR2(N549H)(h)
In short: as §1

## CC(C)C(=O)Nc1nc2cc(-c3ccc4c(c3)c(C(=O)NC(C)c3ccccc3)cn4C)ccn2n1 (centres unmarked) [RI-962]
[1]
  activity at 10 µM: 106%
[2]
  activity at 10 µM: 75%
[3]
  activity at 10 µM: 91%
[4]
  activity at 10 µM: 104%
[5]
  activity at 10 µM: 101%
[6]
  activity at 10 µM: 100%
[7]
  activity at 10 µM: 102%
[8]
  activity at 10 µM: 83%
[9]
  activity at 10 µM: 85%
[10]; read-out: Activity (%), CDK2/cyclinA(h)
  activity at 10 µM: 122%
[10]; read-out: Activity (%), CDK2/cyclinE(h)
  activity at 10 µM: 92%
[11]
  activity at 10 µM: 101%
[12]
  activity at 10 µM: 109%
[13]
  activity at 10 µM: 93%
[14]
  activity at 10 µM: 91%
[15]
  activity at 10 µM: 99%
[16]
  activity at 10 µM: 95%
[17]
  activity at 10 µM: 90%
[18]
  activity at 10 µM: 86%
[19]
  activity at 10 µM: 76%
[20]
  activity at 10 µM: 96%
[21]
  activity at 10 µM: 64%
[22]
  activity at 10 µM: 100%
[23]
  activity at 10 µM: 64%
[24]
  activity at 10 µM: 87%
[25]
  activity at 10 µM: 100%
